Values after ≈ are worked out from the molar mass of the structure shown.
What was measured:
Pseudomonas aeruginosa = assay: Antivirulence activity against Pseudomonas aeruginosa PA14 assessed as inhibition of pyocyanin biosynthesis incubated for 16 hrs under agitation by photometric analysis; format: functional, organism-based; conditions: PA14, 16 h
[1] = Metabolic stability in mouse liver microsomes assessed as half life at 1 uM measured after 30 mins by HPLC-MS/MS analysis; format: ADME, Microsome
[2] = molecular target: T1, Transcriptional regulator MvfR (Pseudomonas aeruginosa PA14, UniProt A0A072ZLE6); assay: Inverse agonist activity at Pseudomonas aeruginosa PqsR extracted from Escherichia coli Dh5alpha co-expressing lacZ incubated with test compound in presence of pseudomonas quinolone signal (PQS) by ONPG/heterologous reporter gene assay
T1 sequence (A0A072ZLE6 whole entry): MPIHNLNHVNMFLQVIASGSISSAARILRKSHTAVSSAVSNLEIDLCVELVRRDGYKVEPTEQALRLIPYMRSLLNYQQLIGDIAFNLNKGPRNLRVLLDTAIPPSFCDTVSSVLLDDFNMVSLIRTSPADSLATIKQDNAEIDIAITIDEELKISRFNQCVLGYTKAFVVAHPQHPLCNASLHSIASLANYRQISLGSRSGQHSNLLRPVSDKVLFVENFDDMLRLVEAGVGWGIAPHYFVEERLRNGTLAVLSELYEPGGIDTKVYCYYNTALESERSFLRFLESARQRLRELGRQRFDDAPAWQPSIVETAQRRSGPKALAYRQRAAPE

[3] = Kinetic aqueous solubility of the compound in PBS buffer incubated for 5 mins by turbidimetric aqueous solubility assay; format: physicochemical; conditions: read-out: Kinetic_solubility
[4] = Lipophilicity, log D of the compound; format: physicochemical; conditions: octanol/water

CN(C)c1ccc(-c2ncc(CNc3ccnc(C(F)(F)F)c3)s2)cc1
IC50 (Pseudomonas aeruginosa): > 5 µM | half-life at 1 µM [1]: 45 min | IC50 [2]: 0.728 µM | solubility kinetic at 5 min [3]: 13 µM (≈ 4.92 µg/mL)

FC(F)(F)c1cc(NCc2cc(-c3ccc(Oc4ccccc4)cc3)n[nH]2)ccn1
IC50 (Pseudomonas aeruginosa): 0.524 µM | half-life at 1 µM [1]: 23 min | logD [4]: 4.35 | IC50 [2]: 0.117 µM | solubility kinetic at 5 min [3]: 15 µM (≈ 6.16 µg/mL)

FC(F)(F)c1cc(NCc2ncsc2-c2ccc(Oc3ccccc3)cc2)ccn1
IC50 (Pseudomonas aeruginosa): > 0.005 µM | IC50 [2]: > 0.005 µM

FC(F)(F)c1cc(NCc2cnc(-c3ccc(Cl)cc3)s2)ccn1
IC50 (Pseudomonas aeruginosa): 0.591 µM | half-life at 1 µM [1]: 122 min | logD [4]: 4.28 | IC50 [2]: 0.067 µM | solubility kinetic at 5 min [3]: 36 µM (≈ 13.3 µg/mL)

FC(F)(F)c1cc(NCc2cnc(-c3ccc(Cl)s3)s2)ccn1
IC50 (Pseudomonas aeruginosa): > 5 µM | half-life at 1 µM [1]: 2 min | IC50 [2]: 0.086 µM | solubility kinetic at 5 min [3]: 43 µM (≈ 16.2 µg/mL)

CC(C)Oc1ccc(-c2ncc(CNc3ccnc(C(F)(F)F)c3)s2)cc1
IC50 (Pseudomonas aeruginosa): 0.118 µM | half-life at 1 µM [1]: 29 min | logD [4]: 4.01 | IC50 [2]: 0.018 µM | solubility kinetic at 5 min [3]: 18 µM (≈ 7.08 µg/mL)

FC(F)(F)c1cc(NCc2nc(-c3ccc(Oc4ccccc4)cc3)cs2)ccn1
IC50 (Pseudomonas aeruginosa): > 5 µM | half-life at 1 µM [1]: 13 min | IC50 [2]: 0.712 µM | solubility kinetic at 5 min [3]: 45 µM (≈ 19.2 µg/mL)

CC(C)Oc1ccc(-c2ncc(CNc3cc(C#N)nc(C(F)(F)F)c3)s2)cc1
IC50 (Pseudomonas aeruginosa): 0.226 µM | half-life at 1 µM [1]: 32 min | logD [4]: 5.12 | IC50 [2]: 0.084 µM | solubility kinetic at 5 min [3]: 6 µM (≈ 2.51 µg/mL)

FC(F)(F)c1cc(NCc2cnc(-c3ccc(C4CC4)cc3)s2)ccn1
IC50 (Pseudomonas aeruginosa): 0.179 µM | half-life at 1 µM [1]: 14 min | logD [4]: 4.19 | IC50 [2]: 0.028 µM | solubility kinetic at 5 min [3]: 7 µM (≈ 2.63 µg/mL)

FC(F)(F)c1cc(NCc2cnc(-c3ccc(Cl)nc3)s2)ccn1
IC50 (Pseudomonas aeruginosa): > 0.005 µM | half-life at 1 µM [1]: 49 min | IC50 [2]: 0.221 µM | solubility kinetic at 5 min [3]: 200 µM (≈ 74.2 µg/mL)

CC(C)Oc1ccc(-c2ncc(CNc3ccnc(Cl)c3)s2)cc1
IC50 (Pseudomonas aeruginosa): 0.302 µM | half-life at 1 µM [1]: 22 min | logD [4]: 5.09 | IC50 [2]: 0.045 µM | solubility kinetic at 5 min [3]: 22 µM (≈ 7.92 µg/mL)

FC(F)(F)c1cc(NCc2cnc(-c3ccc(Oc4ccccc4)cc3)s2)ccn1
IC50 (Pseudomonas aeruginosa): 0.274 µM | half-life at 1 µM [1]: 24 min | logD [4]: 3.29 | IC50 [2]: 0.017 µM | solubility kinetic at 5 min [3]: 6 µM (≈ 2.56 µg/mL)

FC(F)(F)c1cc(OCc2cnc(-c3ccc(Oc4ccccc4)cc3)s2)ccn1
IC50 (Pseudomonas aeruginosa): > 5 µM | logD [4]: 3.87

FC(F)(F)c1cc(NCc2nnc(-c3ccc(Oc4ccccc4)cc3)[nH]2)ccn1
IC50 (Pseudomonas aeruginosa): 0.696 µM | half-life at 1 µM [1]: 23 min | logD [4]: 3.96 | IC50 [2]: 0.093 µM | solubility kinetic at 5 min [3]: 48 µM (≈ 19.7 µg/mL)

COc1ccc(-c2ncc(CNc3ccnc(C(F)(F)F)c3)s2)cc1C
IC50 (Pseudomonas aeruginosa): 0.576 µM | half-life at 1 µM [1]: 1 min | logD [4]: 4.02 | IC50 [2]: 0.058 µM | solubility kinetic at 5 min [3]: 45 µM (≈ 17.1 µg/mL)

FC(F)(F)c1cc(NCc2ccc(-c3ccc(Oc4ccccc4)cc3)o2)ccn1
IC50 (Pseudomonas aeruginosa): > 5 µM | solubility kinetic at 5 min [3]: 63 µM (≈ 25.9 µg/mL)

FC(F)(F)c1cc(NCc2csc(-c3ccc(Oc4ccccc4)cc3)n2)ccn1
IC50 (Pseudomonas aeruginosa): 1.4 µM | half-life at 1 µM [1]: 18 min | logD [4]: 5.04 | IC50 [2]: 0.053 µM | solubility kinetic at 5 min [3]: 18 µM (≈ 7.69 µg/mL)

CC(C)Oc1ccc(-c2ncc(CNc3cc(C#N)nc(C(F)(F)F)c3)s2)cc1Cl
IC50 (Pseudomonas aeruginosa): 0.114 µM | half-life at 1 µM [1]: 58 min | logD [4]: 5.01 | IC50 [2]: 0.019 µM | solubility kinetic at 5 min [3]: 25 µM (≈ 11.3 µg/mL)

Clc1cc(NCc2cnc(-c3ccc(Oc4ccccc4)cc3)s2)ccn1
IC50 (Pseudomonas aeruginosa): 0.718 µM | half-life at 1 µM [1]: 55 min | logD [4]: 4.16 | IC50 [2]: 0.009 µM | solubility kinetic at 5 min [3]: 2 µM (≈ 0.788 µg/mL)

CC(C)Nc1ccc(-c2ncc(CNc3ccnc(C(F)(F)F)c3)s2)cc1
IC50 (Pseudomonas aeruginosa): 0.5 µM | half-life at 1 µM [1]: 7 min | IC50 [2]: 0.43 µM | solubility kinetic at 5 min [3]: 39 µM (≈ 15.3 µg/mL)

CC(C)Oc1ccc(-c2ncc(CNc3cc(Cl)nc(C(F)(F)F)c3)s2)cc1
IC50 (Pseudomonas aeruginosa): 0.087 µM | half-life at 1 µM [1]: 15 min | logD [4]: 5.4 | IC50 [2]: 0.008 µM | solubility kinetic at 5 min [3]: 35 µM (≈ 15 µg/mL)

CC(C)Oc1ccc(-c2ncc(CNc3cc(Cl)nc(C(F)(F)F)c3)s2)cc1Cl
IC50 (Pseudomonas aeruginosa): 0.109 µM | half-life at 1 µM [1]: 28 min | logD [4]: 5.21 | IC50 [2]: 0.01 µM | solubility kinetic at 5 min [3]: 7 µM (≈ 3.24 µg/mL)

FC(F)(F)c1cc(NCc2cc(-c3ccc(Oc4ccccc4)cc3)no2)ccn1
IC50 (Pseudomonas aeruginosa): 0.338 µM | half-life at 1 µM [1]: 36 min | logD [4]: 5.04 | IC50 [2]: 0.03 µM | solubility kinetic at 5 min [3]: 8 µM (≈ 3.29 µg/mL)

COc1c(C)cc(-c2ncc(CNc3ccnc(C(F)(F)F)c3)s2)cc1C
IC50 (Pseudomonas aeruginosa): > 0.005 µM | IC50 [2]: > 0.005 µM

COc1ccc(-c2ncc(CNc3ccnc(C(F)(F)F)c3)s2)cc1Cl
IC50 (Pseudomonas aeruginosa): 0.215 µM | half-life at 1 µM [1]: 1 min | logD [4]: 4.84 | IC50 [2]: 0.04 µM | solubility kinetic at 5 min [3]: 25 µM (≈ 10 µg/mL)

FC(F)(F)c1cc(NCc2nnc(-c3ccc(Oc4ccccc4)cc3)o2)ccn1
IC50 (Pseudomonas aeruginosa): 0.406 µM | half-life at 1 µM [1]: 23 min | logD [4]: 4.12 | IC50 [2]: 0.023 µM | solubility kinetic at 5 min [3]: 46 µM (≈ 19 µg/mL)

FC(F)(F)c1cc(NCc2ncc(-c3ccc(Oc4ccccc4)cc3)s2)ccn1
IC50 (Pseudomonas aeruginosa): 0.515 µM | half-life at 1 µM [1]: 10 min | logD [4]: 5.54 | IC50 [2]: 0.051 µM | solubility kinetic at 5 min [3]: 26 µM (≈ 11.1 µg/mL)

N#Cc1cc(NCc2cnc(-c3ccc(Oc4ccccc4)cc3)s2)ccn1
IC50 (Pseudomonas aeruginosa): 0.29 µM | half-life at 1 µM [1]: 39 min | logD [4]: 3.15 | IC50 [2]: 0.03 µM | solubility kinetic at 5 min [3]: 7 µM (≈ 2.69 µg/mL)

CC(C)Oc1ccc(-c2ncc(CNc3cc(Cl)nc(Cl)c3)s2)cc1
IC50 (Pseudomonas aeruginosa): 0.088 µM | half-life at 1 µM [1]: 37 min | logD [4]: 5.62 | IC50 [2]: 0.029 µM | solubility kinetic at 5 min [3]: 8 µM (≈ 3.15 µg/mL)

FC(F)(F)c1ccc(NCc2cnc(-c3ccc(Oc4ccccc4)cc3)s2)cn1
IC50 (Pseudomonas aeruginosa): 0.424 µM | half-life at 1 µM [1]: 10 min | logD [4]: 3.42 | IC50 [2]: 0.038 µM | solubility kinetic at 5 min [3]: 8 µM (≈ 3.42 µg/mL)

N#Cc1ccc(NCc2cnc(-c3ccc(Oc4ccccc4)cc3)s2)cn1
IC50 (Pseudomonas aeruginosa): 0.761 µM | half-life at 1 µM [1]: 38 min | logD [4]: 3.52 | IC50 [2]: 0.005 µM | solubility kinetic at 5 min [3]: 6 µM (≈ 2.31 µg/mL)

N#Cc1ccc(NCc2cnc(-c3ccc(Oc4ccccc4)cc3)s2)nc1
IC50 (Pseudomonas aeruginosa): > 5 µM | half-life at 1 µM [1]: 20 min | IC50 [2]: 0.803 µM | solubility kinetic at 5 min [3]: 5 µM (≈ 1.92 µg/mL)

COc1ccc(-c2ncc(CNc3ccnc(C(F)(F)F)c3)s2)cc1
IC50 (Pseudomonas aeruginosa): 0.45 µM | IC50 [2]: 0.083 µM

FC(F)(F)c1cc(SCc2cnc(-c3ccc(Oc4ccccc4)cc3)s2)ccn1
IC50 (Pseudomonas aeruginosa): 2.37 µM | half-life at 1 µM [1]: 11 min | logD [4]: 4.03 | IC50 [2]: 0.111 µM | solubility kinetic at 5 min [3]: 7 µM (≈ 3.11 µg/mL)
